Where “and” joins values, the source holds several entries; their conditions need not be identical. Identical values can stand only once. Like-named read-outs stand apart in the source and are kept apart here.
What was measured:
[1] = test system: murine renal cell carcinoma model RENCA; details: cited from earlier work
[2] = test system: human breast and lung cancer cell line-derived in vivo models; details: in vitro and in vivo; cited from earlier work
MDA-MB-453 = test: Cell proliferation assay, Cell Titer Glo (CTG) method, MDA-MB-453; format: cell-based
Protocol: (§1) Cell Proliferation Assay for Nampt-ADCs and Nampt-SMOLs
(§2) Cell Titer Glo (CTG) Method
(§3) To this end, 75 μL per well CTG solution (Promega, catalog #G755B and G756B) was added to cells in sister plates, incubated for 10 min, and luminescence was measured on a VICTOR V instrument (Perkin Elmer). After incubation for either 72 or 96 hrs (Table 1) in the presence of test compounds, 100 μl per well CTG solution was added to all test wells, incubated for 10 min and luminescence was measured on a VICTOR V instrument. […] The DRC software is a Biobook Spreadsheet that was developed by Bayer AG and Bayer Business Services on the IDBS E-Workbook Suite platform (IDBS: ID Business Solutions Ltd., Guildford, UK).

U251 MG = test: Cell proliferation assay, Cell Titer Glo (CTG) method, U251 MG; format: cell-based; details: Table 2
Protocol: as §1, §2, §3

THP-1 = test: Cell proliferation assay, Cell Titer Glo (CTG) method, THP-1; format: cell-based, human; details: Table 2, 72 h
Protocol: as §1, §2, §3

A549 C4.4a B4 = test: Cell proliferation assay, Cell Titer Glo (CTG) method, A549 C4.4a B4; format: cell-based, human
Protocol: as §1, §2, §3

human NAMPT = molecular target: T1, human NAMPT (Homo sapiens, UniProt P43490); test: NAMPT biochemical assay (hNAMPT IC50), cascade assay with NMNAT1 and NAD/NADH-Glo detection; details: Table 2; replicate values on separate lines
T1 construct: N-terminally His6-tagged recombinant full length human NAMPT; His6 (N); made in house; host or cells: E. coli
Excerpt: NAMPT Biochemical Assay (hNAMPT IC50)
Nicotinamide phosphoribosyltransferase (NAMPT) inhibitory activity of compounds of the present invention was quantified employing a cascade assay as described in the following paragraphs. The assay couples the conversion of nicotinamide (NAM) to nicotinamide mononucleotide (NMN) by NAMPT with the conversion of NMN to […] adenine dinucleotide (NAD^+) by nicotinamide mononucleotide adenylyltransferase 1 (NMNAT1) and the subsequent quantification of the generated NAD^+ by a commercial detection kit (NAD/NADH-Glo™ Assay from Promega, #G9072).
N-terminally His6-tagged recombinant full length human NAMPT and N-terminally His6-tagged recombinant full length human NMNAT1, both expressed in E. coli and purified via Ni-NTA-affinity chromatography and consecutive size exclusion chromatography, were used as enzymes.
For the assay 50 nl of a 100 fold concentrated solution of the test compound in DMSO was pipetted into a white low volume 384 well microtiter plate (Greiner Bio-One, Frickenhausen, Germany), 2.5 μl of a solution of NAMPT in aqueous NMNAT1-containing assay buffer [50 mM Tris/HCl pH 7.5, 12 mM MgCl2, 0.6 mM adenosine-tri-phosphate (ATP), 1 nM NMNAT1, 0.02% (w/v) bovine serum albumin (Sigma-Aldrich #P7906), 0.001% (v/v) Tween-20 (Sigma-Aldrich #P7949)] were added and the mixture was incubated for 15 min at 22° C. to allow pre-binding of the test compounds to the enzyme before the start of the enzyme reaction. Then the reaction was started by the addition of 2.5 μl of a solution of NAM (300 nM=>final conc. in the 5 μl assay volume is 150 nM, Sigma-Aldrich #^47865) and 5-phosphorylribose-1-pyrophosphate pentasodium salt (PRPP, 1.2 μM=>final conc. in the 5 μl assay volume is 0.6 μM, Sigma-Aldrich P8296) in assay buffer and the resulting mixture was incubated for a reaction time of 20 min at 22° C. The concentration of NAMPT was adjusted depending of the activity of the enzyme lot and was chosen appropriate to have the assay in the linear range, typical final concentration in the 5 μl assay volume was 0.16 nM.
The resulting mixture was incubated 2 h at 22° C. to allow a steady-state of the detection system. Subsequently the generated luminescence was measured in a suitable luminescence reader, e.g. a Viewlux™ (Perkin-Elmer), and taken as a measure for the generated NAD^+.

[3] = Homo sapiens, MDA-MB-453, 72 h, Table 2, read-out: MDA-MB-453 72 h IC50
[4] = Homo sapiens, A549, 72 h, Table 2, read-out: A549 C4.4a B4 72 h IC50

T1 sequence (P43490 whole entry): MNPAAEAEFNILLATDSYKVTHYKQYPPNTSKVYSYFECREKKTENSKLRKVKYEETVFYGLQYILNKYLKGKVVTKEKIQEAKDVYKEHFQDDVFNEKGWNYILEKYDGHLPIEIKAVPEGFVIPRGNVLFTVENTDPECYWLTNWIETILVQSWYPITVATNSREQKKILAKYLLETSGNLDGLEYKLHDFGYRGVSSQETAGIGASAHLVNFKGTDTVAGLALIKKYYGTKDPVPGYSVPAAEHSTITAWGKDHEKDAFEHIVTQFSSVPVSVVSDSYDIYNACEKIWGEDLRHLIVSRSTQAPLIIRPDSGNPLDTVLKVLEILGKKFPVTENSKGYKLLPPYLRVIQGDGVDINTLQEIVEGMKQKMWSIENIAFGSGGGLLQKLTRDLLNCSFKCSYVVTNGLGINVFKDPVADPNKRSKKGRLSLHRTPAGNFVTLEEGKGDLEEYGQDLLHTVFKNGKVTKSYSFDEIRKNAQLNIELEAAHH

Row | Compound | In vivo efficacy [1] | cytotoxic effects [2] | IC50 (MDA-MB-453; [3]) | IC50 (U251 MG; Homo sapiens, U-251, 72 h) | IC50 (THP-1; Homo sapiens, THP-1) | IC50 (A549 C4.4a B4; [4]) | IC50 (human NAMPT) | IC50 (MDA-MB-453; Table 2, 72 h, read-out: MDA-MB-453 72 h IC50) | IC50 (U251 MG; 72 h) | IC50 (THP-1) | IC50 (A549 C4.4a B4; Table 2, 72 h, read-out: A549 C4.4a B4 72 h IC50)
1 | O=C(/C=C/c1cccnc1)NCCCCC1CCN(C(=O)c2ccccc2)CC1 [daporinad, (E)-N-[4-(I-benzoylpiperidin-4-yl)butyl]-3-(pyridine-3-yl)-acrylamide] | In vivo efficacy of daporinad was shown |  |  |  |  |  |  |  |  |  | 
2 | N#CN=C(NCCCCCCOc1ccc(Cl)cc1)Nc1ccncc1 [CHS-828, N-[6-(4-chlorophenoxy)hexyl]-N′-cyano-N″-4-pyridinyl-guanidine] |  | highly cytotoxic effects |  |  |  |  |  |  |  |  | 
3 | NCCCCN1N=C(c2ccc(NC(=O)N3Cc4ccncc4C3)cc2)C[C@](c2cccc3ncccc23)(C(F)(F)F)C1=O [Example 13, N-{4-[(5R)-1-(4-aminobutyl)-6-oxo-5-(quinolin-5-yl)-5-(trifluoromethyl)-1,4,5,6-tetrahydropyridazin-3-yl]phenyl}-1,3-dihydro-2H-pyrrolo[3,4-c]pyridine-2-carboxamide] |  |  | 0.436 nM | 43.7 nM | 0.447 nM | 227 nM | 2.77 nM and 3.2 nM |  |  |  | 
4 | NCCCCCCn1nc(-c2ccc(NC(=O)N3Cc4ccncc4C3)cc2)cc(-c2cccc3ncccc23)c1=O [Example 6, N-{4-[1-(6-Aminohexyl)-6-oxo-5-(quinolin-5-yl)-1,6-dihydropyridazin-3-yl]phenyl}-1,3-dihydro-2H-pyrrolo[3,4-c]pyridine-2-carboxamide] |  |  | < 0.03 nM | < 0.03 nM | < 0.003 nM | 11 nM | 0.267 nM and 0.288 nM |  |  |  | 
5 | Cc1nnc(C2CC(c3ccc(NC(=O)N4Cc5ccncc5C4)cc3)=NNC2=O)o1 (centres unmarked) [Example 7, N-{4-[5-(5-Methyl-1,3,4-oxadiazol-2-yl)-6-oxo-1,4,5,6-tetrahydropyridazin-3-yl]phenyl}-1,3-dihydro-2H-pyrrolo[3,4-c]pyridine-2-carboxamide] |  |  | 0.299 nM | 8.95 nM | 0.995 nM | > 300 nM | 1.02 nM and 1.2 nM |  |  |  | 
6 | 2 or 3-{[(2R)-2-Amino-2-carboxyethyl]sulfanyl}-4-{[2-({6-[3-{4-[(1,3-dihydro-2H-pyrrolo[3,4-c]pyridine-2-carbonyl)amino]phenyl}-5-(5-methyl-1,3,4-oxadiazol-2-yl)-6-oxopyridazin-1(6H)-yl]hexyl}amino)-2-oxoethyl]amino}-4-oxobutanoic Acid [Example 34M] |  |  |  |  |  |  | 1.17 nM and 1.18 nM | 91.2 nM | > 300 nM | > 300 nM | > 300 nM
7 | O=C(Nc1ccc(-c2cc(-c3cccc4[nH]ncc34)c(=O)[nH]n2)cc1)N1Cc2ccncc2C1 [Example 18, N-{4-[5-(1H-indazol-4-yl)-6-oxo-1,6-dihydropyridazin-3-yl]phenyl}-1,3-dihydro-2H-pyrrolo[3,4-c]pyridine-2-carboxamide] |  |  | < 0.03 nM | < 0.03 nM | ≤ 0.003 nM | 58.5 nM | 0.213 nM and 0.226 nM |  | 0.0428 nM |  | 
8 | O=C1NN=C(c2ccc(NC(=O)N3Cc4ccncc4C3)cc2)CC1c1ccc2[nH]ccc2c1 (centres unmarked) [Example 21, N-{4-[5-(1H-Indol-5-yl)-6-oxo-1,4,5,6-tetrahydropyridazin-3-yl]phenyl}-1,3-dihydro-2H-pyrrolo[3,4-c]pyridine-2-carboxamide] |  |  | < 0.03 nM | < 0.03 nM | < 0.003 nM | 40.5 nM | 0.393 nM and 0.47 nM |  |  |  | 
9 | Cc1nnc(-c2cc(-c3ccc(NC(=O)N4Cc5ccncc5C4)cc3)nn(CCCCN)c2=O)o1 [Example 8, N-{4-[1-(4-Aminobutyl)-5-(5-methyl-1,3,4-oxadiazol-2-yl)-6-oxo-1,6-dihydropyridazin-3-yl]phenyl}-1,3-dihydro-2H-pyrrolo[3,4-c]pyridine-2-carboxamide] |  |  | 2.66 nM | 28.1 nM | 0.979 nM | 93.5 nM | 1.04 nM and 1.32 nM |  |  |  | 
10 | O=C(Nc1ccc(-c2cc(-c3ccc4[nH]ncc4c3)c(=O)[nH]n2)cc1)N1Cc2ccncc2C1 [Example 16, N-{4-[5-(1H-indazol-5-yl)-6-oxo-1,6-dihydropyridazin-3-yl]phenyl}-1,3-dihydro-2H-pyrrolo[3,4-c]pyridine-2-carboxamide-hydrogen chloride] |  |  | < 0.03 nM | 0.0411 nM | < 0.003 nM | 23.2 nM | 0.323 nM and 0.326 nM |  | 0.057 nM |  | 
11 | Cc1nnc(-c2cc(-c3ccc(NC(=O)N4Cc5ccncc5C4)cc3)n[nH]c2=O)o1 [Example 9, N-{4-[5-(5-methyl-1,3,4-oxadiazol-2-yl)-6-oxo-1,6-dihydropyridazin-3-yl]phenyl}-1,3-dihydro-2H-pyrrolo[3,4-c]pyridine-2-carboxamide] |  |  | 0.0357 nM | 4.34 nM | 1.21 nM | 97.2 nM | 0.457 nM and 0.717 nM |  |  |  | 
12 | Cc1nnc(-c2cc(-c3ccc(NC(=O)N4Cc5ccncc5C4)cc3)nn(CCCCCCN)c2=O)o1 [Example 10, N-{4-[1-(6-Aminohexyl)-5-(5-methyl-1,3,4-oxadiazol-2-yl)-6-oxo-1,6-dihydropyridazin-3-yl]phenyl}-1,3-dihydro-2H-pyrrolo[3,4-c]pyridine-2-carboxamide] |  |  | 0.0943 nM | 8.87 nM | 0.00471 nM | 267 nM | 0.358 nM and 0.389 nM |  |  |  | 
13 | O=C(Nc1ccc(-c2cc(-c3ccc4cccnc4c3)c(=O)[nH]n2)cc1)N1Cc2ccncc2C1 [Example 24, N-{4-[6-oxo-5-(quinolin-7-yl)-1,6-dihydropyridazin-3-yl]phenyl}-1,3-dihydro-2H-pyrrolo[3,4-c]pyridine-2-carboxamide] |  |  | < 0.03 nM | < 0.03 nM | 0.00996 nM | 4.92 nM | 0.241 nM and 0.295 nM |  |  |  | 
14 | O=C(Nc1ccc(-c2cc(-c3ccc4[nH]ccc4c3)c(=O)[nH]n2)cc1)N1Cc2ccncc2C1 [Example 20, N-{4-[5-(1H-indol-5-yl)-6-oxo-1,6-dihydropyridazin-3-yl]phenyl}-1,3-dihydro-2H-pyrrolo[3,4-c]pyridine-2-carboxamide] |  |  | < 0.03 nM | < 0.03 nM | < 0.003 nM | 6.39 nM | 0.156 nM and 0.229 nM |  |  |  | 
15 | NCCCCn1nc(-c2ccc(NC(=O)N3Cc4ccncc4C3)cc2)cc(-c2ccc3cccnc3c2)c1=O [Example 25, N-{4-[1-(4-Aminobutyl)-6-oxo-5-(quinolin-7-yl)-1,6-dihydropyridazin-3-yl]phenyl}-1,3-dihydro-2H-pyrrolo[3,4-c]pyridine-2-carboxamide] |  |  | < 0.03 nM | 0.428 nM | 0.0227 nM | 57.1 nM | 0.803 nM and 1.15 nM |  |  |  | 
16 | O=C1NN=C(c2ccc(NC(=O)N3Cc4ccncc4C3)cc2)CC1c1ccc2[nH]ncc2c1 (centres unmarked) [Example 17, N-{4-[5-(1H-indazol-5-yl)-6-oxo-1,4,5,6-tetrahydropyridazin-3-yl]phenyl}-1,3-dihydro-2H-pyrrolo[3,4-c]pyridine-2-carboxamide] |  |  | < 0.03 nM | 0.642 nM | 0.0385 nM | 12.4 nM | 0.218 nM and 0.346 nM |  |  |  | 

From patent US20200360531A1, “ANTIBODY DRUG CONJUGATES (ADCS) WITH NAMPT INHIBITORS” (Bayer Aktiengesellschaft, priority 2018, published 2020)
